Measurements taken from patent US20260355120A1, “"GOOD" BUFFER-BASED CATIONIC LIPIDS FOR NUCLEIC ACID DELIVERY” (SANOFI VACCINES US INC., priority 2023, published 2026).

System: hEPO
Test: Delivery of hEPO mRNA by intramuscular administration of lipid nanoparticles; serum hEPO by ELISA
Type: in vivo, female BALB/cJ mice
Details: single IM 0.1 μg/An hEPO mRNA LNP, lipid formulation 1 (N/P 4), MC3 and SM-102 in formulation 2 (N/P 3); for hEPO 6 Hr Mean: 6 h post injection; for hEPO 24 Hr Mean: 24 h post injection
Excerpt: The lipid nanoparticles in the examples of the present invention were formulated using Process A of WO 2018/089801 (see, e.g., Example 1 and FIG. 1 of WO 2018/089801). Process A (“A”) relates to a conventional method of encapsulating mRNA by mixing mRNA with a mixture of lipids, without first pre-forming the lipids into lipid nanoparticles. In an exemplary process, an ethanolic solution of a mixture of lipids (cationic lipid, phosphatidylethanolamine, cholesterol, and polyethylene glycol-lipid) at a fixed lipid to mRNA ratio were combined with an aqueous buffered solution of target mRNA at an acidic pH under controlled conditions to yield a suspension of uniform LNPs. After ultrafiltration and diafiltration into a suitable diluent system, the resulting nanoparticle suspensions were diluted to final concentration, filtered, and stored frozen at −80 °C until use.
Lipid nanoparticle formulations of Table C were prepared by Process A. All of the lipid nanoparticle formulations comprised hEPO mRNA and the different lipids (Cationic Lipid: DMG-PEG2000: Cholesterol: DOPE/DSPC) in the mol % ratios specified in Table C.
The cationic lipids of the present invention and lipid OF-02 were evaluated with lipid nanoparticle formulation 1. MC3 and SM-102 were evaluated with lipid nanoparticle formulation 2, which is a typical formulation for those lipids.
In summary, lipid screening studies were conducted with female BALB/cJ mice 6-8 weeks of age (Jax #000651). Mice were dosed with 0.1 μg in 30 μL of LNPs by a single intramuscular (IM) injection into the gastrocnemius leg muscle. Blood samples were taken 6 and 24 hours post injection and hEPO levels were measured in the blood serum of the mice using an ELISA assay according to the manufacture's protocol (R&D systems, Cat #DEP-00). WO2022/099003 A1 also describes an in vivo assay for intramuscular administration (e.g. on page 46, paragraph [00206]).

Row | Structure (SMILES) | hEPO 6 Hr Mean [ng/mL] | hEPO 24 Hr Mean [ng/mL]
1 | CCCCCCCC/C=C\CCCCCCCCN(CCCCCCCC(=O)OC(CCCCCCCC)CCCCCCCC)CCCCSSCCCCN1CCN(CCOC(=O)CCCN(CC(O)CCCCCCCCCC)CC(O)CCCCCCCCCC)CC1 (stereo not shown) [Compound 1] | 11 | 9.5
2 | CCCCCCCCCCCOC(=O)CCCCCN(CCCCCCCC(=O)OC(CCCCCCCC)CCCCCCCC)CCCCSSCCCCN1CCN(CCOC(=O)CCCN(CC(O)CCCCCCCCCC)CC(O)CCCCCCCCCC)CC1 (stereo not shown) [Compound 2] | 35.4 | 29.2
3 | CCCCCC/C=C\COC(=O)CCCCCCCN(CCCCCCCC(=O)OC(CCCCCCCC)CCCCCCCC)CCCCSSCCCCN1CCN(CCOC(=O)CCCN(CC(O)CCCCCCCCCC)CC(O)CCCCCCCCCC)CC1 (stereo not shown) [Compound 3] | 20.5 | 19.3
4 | CCCCC/C=C\C/C=C\CCCCCCCCN(CCCCCCCC(=O)OC(CCCCCCCC)CCCCCCCC)CCCCSSCCCCN1CCN(CCOC(=O)CCCN(CC(O)CCCCCCCCCC)CC(O)CCCCCCCCCC)CC1 (stereo not shown) [Compound 4] | 18.8 | 12.1
5 | CCCCCC/C=C\COC(=O)CCCCCC(O)CN(CCCCSSCCCCN1CCN(CCOC(=O)CCCN(CC(O)CCCCCCCCCC)CC(O)CCCCCCCCCC)CC1)CC(O)CCCCCC(=O)OC(CCCCCCCC)CCCCCCCC (stereo not shown) [Compound 5] | 35 | 18.7
6 | CCCCCCCC/C=C\CCCCCCC(O)CN(CCCCSSCCCCN1CCN(CCOC(=O)CCCN(CC(O)CCCCCCCCCC)CC(O)CCCCCCCCCC)CC1)CC(O)CCCCCC(=O)OC(CCCCCCCC)CCCCCCCC (stereo not shown) [Compound 6] | 34.7 | 18.4
7 | CCCCC/C=C\C/C=C\CCCCCCC(O)CN(CCCCSSCCCCN1CCN(CCOC(=O)CCCN(CC(O)CCCCCCCCCC)CC(O)CCCCCCCCCC)CC1)CC(O)CCCCCC(=O)OC(CCCCCCCC)CCCCCCCC (stereo not shown) [Compound 7] | 31.4 | 25.8
8 | CCCCCCCCCCCOC(=O)CCCC(O)CN(CCCCSSCCCCN1CCN(CCOC(=O)CCCN(CC(O)CCCCCCCCCC)CC(O)CCCCCCCCCC)CC1)CC(O)CCCCCC(=O)OC(CCCCCCCC)CCCCCCCC (stereo not shown) [Compound 8] | 41.8 | 33.3
9 | CCCCCCCCCCCOC(=O)CCCCCN(CCCCCCCC(=O)OC(CCCCCCCC)CCCCCCCC)CCCC(=O)OCCN1CCN(CCCCSSCCCN(CC(O)CCCCC(=O)OCC(CC)CC)CC(O)CCCCC(=O)OCC(CC)CC)CC1 (stereo not shown) [Compound 9] | 24.3 | 15.7
10 | CCCCCCCCCCCOC(=O)CCCCCN(CCCCCCCC(=O)OC(CCCCCCCC)CCCCCCCC)CCCC(=O)OCCN1CCN(CCCCSSCCCCN(CC(O)CCCCCC(=O)OC(CCCCCCCC)CCCCCCCC)CC2CCCC(=O)O2)CC1 (stereo not shown) [Compound 10] | 19.6 | 7.7
11 | CCCCCCCCC(CCCCCCCC)OC(=O)CCCCCC(O)CN(CCCC(=O)OCCN1CCN(CCCCSSCCCN(CC(O)CCCCC(=O)OCC(CC)CC)CC(O)CCCCC(=O)OCC(CC)CC)CC1)CC1CCCC(=O)O1 (stereo not shown) [Compound 11] | 18.7 | 10.1
12 | CCCCCCCCCCCOC(=O)CCCC(O)CN(CCCC(=O)OCCN1CCN(CCCCSSCCCN(CC(O)CCCCC(=O)OCC(CC)CC)CC(O)CCCCC(=O)OCC(CC)CC)CC1)CC(O)CCCCCC(=O)OC(CCCCCCCC)CCCCCCCC (stereo not shown) [Compound 12] | 37.4 | 21
13 | CCCCCCCCCCCOC(=O)CCCCCN(CCCCCCCC(=O)OC(CCCCCCCC)CCCCCCCC)CCCC(=O)OCCN1CCN(CCCCSSCCCCN(CC(O)CCCCCC(=O)OC(CCCCCCCC)CCCCCCCC)CC(O)CCCC(=O)OCCCCCCCCCCC)CC1 (stereo not shown) [Compound 13] | 29.5 | 13.8
14 | CCCCCCCCCCCOC(=O)CCCC(O)CN(CCCCSSCCCCN1CCN(CCOC(=O)CCCN(CC(O)CCCCCC(=O)OC(CCCCCCCC)CCCCCCCC)CC(O)CCCC(=O)OCCCCCCCCCCC)CC1)CC(O)CCCCCC(=O)OC(CCCCCCCC)CCCCCCCC (stereo not shown) [Compound 14] | 26.4 | 12.8
15 | CCCCCCCCCCC(O)CN(CCCC(=O)OCCN1CCN(CCCCSSCCCCN(CC(O)CCCCC(=O)OCC(CC)CC)CC(O)CCCCC(=O)OCC(CC)CC)CC1)CC(O)CCCCCCCCCC (stereo not shown) [Compound 15] | 36 | 22.8
16 | CCCCCCCCCCC(O)CN(CCCC(=O)OCCN1CCN(CCCCSSCCCN(CC(O)CCCCC(=O)OCC(CC)CC)CC(O)CCCCC(=O)OCC(CC)CC)CC1)CC(O)CCCCCCCCCC (stereo not shown) [Compound 16] | 32.4 | 18.7
17 | CCCCCCCCCCC(O)CN(CCCC(=O)OCCN1CCN(CCCCSSCCCCN(CC(O)CCCC(=O)OC(CC)CC)CC(O)CCCC(=O)OC(CC)CC)CC1)CC(O)CCCCCCCCCC (stereo not shown) [Compound 17] | 19.7 | 10.4
18 | CCCCCCCCCCC(O)CN(CCCC(=O)OCCN1CCN(CCCCSSCCCN(CC(O)CCCC(=O)OC(CC)CC)CC(O)CCCC(=O)OC(CC)CC)CC1)CC(O)CCCCCCCCCC (stereo not shown) [Compound 18] | 18.2 | 9.2
19 | CCCCC/C=C\C/C=C\CCCCCCCCC(CCCCCCCC/C=C\C/C=C\CCCCC)OC(=O)CCCN(C)C [MC3, reference compound] | 3.9 | 2.9
20 | CCCCCCCCCCCOC(=O)CCCCCN(CCO)CCCCCCCC(=O)OC(CCCCCCCC)CCCCCCCC [SM102, SM-102, reference compound] | 12.5 | 13.3
